Measurements published in patent publication US20240132463A1, “SUBSTITUTED N-(2-(2,6-DIOXOPIPERIDIN-3-YL)-1,3-DIOXOISOINDOLIN-5-YL)ARYLSULFONAMIDE ANALOGS AS MODULATORS OF CEREBLON PROTEIN” (ST. JUDE CHILDREN'S RESEARCH HOSPITAL, INC., priority 2020, published 2024).

Columns and labels:
[1] = target: GSPT1 HiBiT tag protein (Homo sapiens (Human), UniProt P15170+Q96SW2); assay: hGSPT1 HiBiT assay; assay type: cell-based; conditions: HEK293 hGSPT1 HiBiT cells, 4 hrs incubation; read-out: GSPT1 HiBit EC50
Procedure: hGSPT1 HiBiT cell line. HEK293_hGSPT1_HiBiT tagged cells were generated using CRISPR-Cas12a technology. Briefly, ˜400,000 HEK293 cells were transiently co-transfecting with precomplexed ribonuclear proteins (RNPs) consisting of […] of crRNA (IDT), 62 pmol of Cas12a protein (IDT), 3 ug of ssODN donor (IDT; AltR™ modifications), 78 pmol of electroporation enhancer (IDT), and 200 ng of pMaxGFP (Lonza). The transfection was performed via nucleofection (Lonza, 4D-Nucleofector™ X-unit) using solution P3 and program CM-130 in a small (20 ul) cuvette according to the manufacturer's recommended protocol. Five days post-nucleofection, cells were single cell sorted for GFP+(transfected) cells by FACs in 96-well plates and clonally selected. Clones were screened and verified for the desired modification via targeted deep sequencing using gene specific primers with partial Illumina adapter overhangs as previously described.^58 In brief, clonal cell pellets were harvested, lysed and used to generate gene specific amplicons with partial Illumina adapters in PCR #1. Amplicons were indexed in PCR #2 and pooled with other targeted amplicons for other loci to create sequence diversity. Additionally, 10% PhiX Sequencing Control V3 (Illumina) was added to the pooled amplicon library prior to running the sample on an Miseq Sequencer System (Illumina) to generate paired 2×250 bp reads. […] Editing construct sequences and screening primers are listed below in Table 4.
hGSPT1 HiBiT assay. […] After 4 hrs incubation, the level of GSPT1 HiBiT tag protein was evaluated using Nano-Glo® HiBiT Lytic Detection System (Promega) according to the manufacturer's instruction.

[2] = target: 6×His-CRBN-DDB1 protein (Homo sapiens (Human), UniProt Q96SW2); assay: CRBN fluorescence polarization assay; assay type: binding; conditions: cereblon binding, class symbols; read-out: CRBN FP IC50
Procedure: 6×His-CRBN-DDB1 protein (200 nM) and Cy5-O-Len probe (30 nM) were combined in 20 mM HEPES pH 7, 150 mM NaCl, 0.005% Tween-20 assay buffer. […] The plates were incubated in the dark for 1 hour at room temperature and then read on an Envision plate reader (PerkinElmer, Massachusetts, USA).

Sequence of 6×His-CRBN-DDB1 protein (Q96SW2 whole entry): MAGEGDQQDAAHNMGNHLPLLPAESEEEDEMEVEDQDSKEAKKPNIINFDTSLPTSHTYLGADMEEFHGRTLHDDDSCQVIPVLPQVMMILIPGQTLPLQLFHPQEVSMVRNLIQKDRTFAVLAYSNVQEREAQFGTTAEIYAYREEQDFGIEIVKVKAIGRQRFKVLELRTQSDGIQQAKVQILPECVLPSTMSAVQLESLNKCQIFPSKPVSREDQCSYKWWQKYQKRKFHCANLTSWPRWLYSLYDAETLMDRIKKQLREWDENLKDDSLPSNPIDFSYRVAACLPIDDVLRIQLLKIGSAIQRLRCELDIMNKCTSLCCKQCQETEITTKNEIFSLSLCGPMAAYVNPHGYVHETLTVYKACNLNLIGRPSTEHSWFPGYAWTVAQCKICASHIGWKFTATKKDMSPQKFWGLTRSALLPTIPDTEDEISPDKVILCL
Sequence of 6×His-CRBN-DDB1 protein (Q16531 whole entry partner): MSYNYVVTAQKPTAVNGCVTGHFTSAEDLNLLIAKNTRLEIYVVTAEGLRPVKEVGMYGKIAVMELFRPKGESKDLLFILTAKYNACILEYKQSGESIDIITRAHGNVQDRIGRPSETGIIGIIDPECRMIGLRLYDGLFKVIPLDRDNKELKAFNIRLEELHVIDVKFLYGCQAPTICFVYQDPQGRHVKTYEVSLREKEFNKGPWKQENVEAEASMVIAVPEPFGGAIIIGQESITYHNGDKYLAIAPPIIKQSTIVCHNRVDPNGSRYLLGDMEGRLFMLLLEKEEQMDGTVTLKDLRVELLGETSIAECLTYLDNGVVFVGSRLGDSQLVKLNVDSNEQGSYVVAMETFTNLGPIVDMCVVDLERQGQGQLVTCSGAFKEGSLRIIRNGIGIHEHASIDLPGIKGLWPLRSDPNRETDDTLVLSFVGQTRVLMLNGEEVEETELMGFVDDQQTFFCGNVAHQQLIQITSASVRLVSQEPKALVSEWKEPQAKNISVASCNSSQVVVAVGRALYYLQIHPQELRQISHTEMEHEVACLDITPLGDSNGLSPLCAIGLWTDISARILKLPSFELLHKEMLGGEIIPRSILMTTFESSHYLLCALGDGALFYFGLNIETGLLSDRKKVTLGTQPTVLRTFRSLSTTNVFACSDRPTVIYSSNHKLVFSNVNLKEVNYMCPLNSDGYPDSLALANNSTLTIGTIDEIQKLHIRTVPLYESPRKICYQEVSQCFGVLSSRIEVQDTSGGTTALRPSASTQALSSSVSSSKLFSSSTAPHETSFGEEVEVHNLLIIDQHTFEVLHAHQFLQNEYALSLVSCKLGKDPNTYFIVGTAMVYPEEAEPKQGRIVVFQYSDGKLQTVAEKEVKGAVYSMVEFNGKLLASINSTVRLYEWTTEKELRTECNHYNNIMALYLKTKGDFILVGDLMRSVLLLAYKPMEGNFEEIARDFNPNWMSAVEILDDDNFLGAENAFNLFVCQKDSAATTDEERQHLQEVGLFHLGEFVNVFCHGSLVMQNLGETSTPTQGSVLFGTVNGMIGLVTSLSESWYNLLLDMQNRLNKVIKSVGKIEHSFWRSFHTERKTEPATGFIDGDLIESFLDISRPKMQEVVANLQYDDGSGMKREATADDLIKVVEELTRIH
Sequence of GSPT1 HiBiT tag protein (P15170 whole entry): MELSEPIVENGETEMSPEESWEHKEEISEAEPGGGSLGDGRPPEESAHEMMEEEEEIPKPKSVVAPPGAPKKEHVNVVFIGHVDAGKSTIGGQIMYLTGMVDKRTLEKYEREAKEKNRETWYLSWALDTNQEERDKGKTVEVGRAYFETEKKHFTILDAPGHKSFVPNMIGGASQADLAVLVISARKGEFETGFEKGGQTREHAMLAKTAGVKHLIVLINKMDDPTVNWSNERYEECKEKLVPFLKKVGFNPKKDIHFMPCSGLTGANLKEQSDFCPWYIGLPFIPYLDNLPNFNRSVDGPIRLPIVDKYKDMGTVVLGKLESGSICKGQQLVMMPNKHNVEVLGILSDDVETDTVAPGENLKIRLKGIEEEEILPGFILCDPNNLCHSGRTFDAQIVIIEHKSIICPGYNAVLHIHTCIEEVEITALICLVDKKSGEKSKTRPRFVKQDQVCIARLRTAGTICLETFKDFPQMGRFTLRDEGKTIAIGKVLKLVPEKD
Sequence of GSPT1 HiBiT tag protein (Q96SW2 whole entry): as the sequence (Q96SW2 whole entry) above
Sequence of GSPT1 HiBiT tag protein (Q16531 whole entry partner): as the sequence (Q16531 whole entry partner) above

DC50 [1] [nM]	IC50 [2] [nM]	Structure (SMILES)
> 10000		O=C1CCC(N2C(=O)c3ccc(NS(=O)(=O)c4ccc(C(F)(F)F)cc4)cc3C2=O)C(=O)N1 (stereo not drawn) [Compound 8, N-(2-(2,6-dioxopiperidin-3-yl)-1,3-dioxoisoindolin-5-yl)-4-(trifluoromethyl)benzenesulfonamide]
> 10000	< 1000	O=C1CCC(N2C(=O)c3ccc(NS(=O)(=O)c4ccc(F)cc4)cc3C2=O)C(=O)N1 (stereo not drawn) [Compound 12, N-(2-(2,6-dioxopiperidin-3-yl)-1,3-dioxoisoindolin-5-yl)-4-fluorobenzenesulfonamide]
> 10000	< 1000	O=C1CCC(N2C(=O)c3ccc(NS(=O)(=O)c4ccc(Cl)cc4)cc3C2=O)C(=O)N1 (stereo not drawn) [Compound 16, 4-chloro-N-(2-(2,6-dioxopiperidin-3-yl)-1,3-dioxoisoindolin-5-yl)benzenesulfonamide]
> 10000	< 1000	O=C1CCC(N2C(=O)c3ccc(NS(=O)(=O)c4cccs4)cc3C2=O)C(=O)N1 (stereo not drawn) [Compound 18, N-(2-(2,6-dioxopiperidin-3-yl)-1,3-dioxoisoindolin-5-yl)thiophene-2-sulfonamide]
> 10000	1000 to 10000	Cc1ccc(S(=O)(=O)Nc2ccc3c(c2)C(=O)N(C2CCC(=O)NC2=O)C3=O)cc1 (stereo not drawn) [Compound 21, N-(2-(2,6-dioxopiperidin-3-yl)-1,3-dioxoisoindolin-5-yl)-4-methylbenzenesulfonamide]
	< 1000	O=C1CCC(N2C(=O)c3ccc(NS(=O)(=O)c4ccc5c(c4)OCCO5)cc3C2=O)C(=O)N1 (stereo not drawn) [Compound 59, N-(2-(2,6-dioxopiperidin-3-yl)-1,3-dioxoisoindolin-5-yl)-2,3-dihydrobenzo[b][1,4]dioxine-6-sulfonamide]
	< 1000	O=C1CCC(N2C(=O)c3ccc(NS(=O)(=O)c4ccc(-c5ccccc5)cc4)cc3C2=O)C(=O)N1 (stereo not drawn) [Compound 62, N-(2-(2,6-dioxopiperidin-3-yl)-1,3-dioxoisoindolin-5-yl)(1,1′-biphenyl]-4-sulfonamide]
	< 1000	N#Cc1ccc(S(=O)(=O)Nc2ccc3c(c2)C(=O)N(C2CCC(=O)NC2=O)C3=O)cc1 (stereo not drawn) [Compound 64, 4-cyano-N-(2-(2,6-dioxopiperidin-3-yl)-1,3-dioxoisoindolin-5-yl)benzenesulfonamide]
> 10000	< 1000	O=C1CCC(N2C(=O)c3ccc(NS(=O)(=O)c4cccc(F)c4)cc3C2=O)C(=O)N1 (stereo not drawn) [Compound 72, N-(2-(2,6-dioxopiperidin-3-yl)-1,3-dioxoisoindolin-5-yl)-3-fluorobenzenesulfonamide]
	1000 to 10000	O=C1CCC(N2C(=O)c3ccc(NS(=O)(=O)c4ccc(C5CCCCC5)cc4)cc3C2=O)C(=O)N1 (stereo not drawn) [Compound 80, 4-cyclohexyl-N-(2-(2,6-dioxopiperidin-3-yl)-1,3-dioxoisoindolin-5-yl)benzenesulfonamide]
	1000 to 10000	O=C1CCC(N2C(=O)c3ccc(NS(=O)(=O)c4cccnc4)cc3C2=O)C(=O)N1 (stereo not drawn) [Compound 85, N-(2-(2,6-dioxopiperidin-3-yl)-1,3-dioxoisoindolin-5-yl)pyridine-3-sulfonamide]
	< 1000	O=C1CCC(N2C(=O)c3ccc(NS(=O)(=O)c4ccc5ncsc5c4)cc3C2=O)C(=O)N1 (stereo not drawn) [Compound 86, N-(2-(2,6-dioxopiperidin-3-yl)-1,3-dioxoisoindolin-5-yl)benzo[d]thiazole-6-sulfonamide]
	< 1000	Cc1ccc(S(=O)(=O)Nc2ccc3c(c2)C(=O)N(C2CCC(=O)NC2=O)C3=O)cc1C (stereo not drawn) [Compound 93, N-(2-(2,6-dioxopiperidin-3-yl)-1,3-dioxoisoindolin-5-yl)-3,4-dimethylbenzenesulfonamide]

Further lines, the molecule ahead of its results:

Structure (SMILES)	DC50 [1] [nM]	IC50 [2] [nM]
O=C1CCC(N2C(=O)c3ccc(NS(=O)(=O)c4cccc(C(F)(F)F)c4)cc3C2=O)C(=O)N1 (stereo not drawn) [Compound 4, N-(2-(2,6-dioxopiperidin-3-yl)-1,3-dioxoisoindolin-5-yl)-3-(trifluoromethyl)benzenesulfonamide]	> 10000	< 1000
O=C1CCC(N2C(=O)c3ccc(NS(=O)(=O)Cc4ccccc4)cc3C2=O)C(=O)N1 (stereo not drawn) [Compound 9, N-(2-(2,6-dioxopiperidin-3-yl)-1,3-dioxoisoindolin-5-yl)-1-phenylmethanesulfonamide]	> 10000	1000 to 10000
Cc1ccc(F)c(S(=O)(=O)Nc2ccc3c(c2)C(=O)N(C2CCC(=O)NC2=O)C3=O)c1 (stereo not drawn) [Compound 10, N-(2-(2,6-dioxopiperidin-3-yl)-1,3-dioxoisoindolin-5-yl)-2-fluoro-5-methylbenzenesulfonamide]	> 10000	< 1000
Cc1ccccc1S(=O)(=O)Nc1ccc2c(c1)C(=O)N(C1CCC(=O)NC1=O)C2=O (stereo not drawn) [Compound 15, N-(2-(2,6-dioxopiperidin-3-yl)-1,3-dioxoisoindolin-5-yl)-2-methylbenzenesulfonamide]	1000 to 10000	< 1000
O=C1CCC(N2C(=O)c3ccc(NS(=O)(=O)c4ccc(F)c(Cl)c4)cc3C2=O)C(=O)N1 (stereo not drawn) [Compound 17, 3-chloro-N-(2-(2,6-dioxopiperidin-3-yl)-1,3-dioxoisoindolin-5-yl)-4-fluorobenzenesulfonamide]	> 10000	< 1000
O=C1CCC(N2C(=O)c3ccc(NS(=O)(=O)c4ccc5ccccc5c4)cc3C2=O)C(=O)N1 (stereo not drawn) [Compound 63, N-(2-(2,6-dioxopiperidin-3-yl)-1,3-dioxoisoindolin-5-yl)naphthalene-2-sulfonamide]	> 10000	< 1000
O=C1CCC(N2C(=O)c3ccc(NS(=O)(=O)c4ccccc4Br)cc3C2=O)C(=O)N1 (stereo not drawn) [Compound 65, 2-bromo-N-(2-(2,6-dioxopiperidin-3-yl)-1,3-dioxoisoindolin-5-yl)benzenesulfonamide]		< 1000
O=C1CCC(N2C(=O)c3ccc(NS(=O)(=O)c4cc(F)c(Cl)cc4F)cc3C2=O)C(=O)N1 (stereo not drawn) [Compound 66, 4-chloro-N-(2-(2,6-dioxopiperidin-3-yl)-1,3-dioxoisoindolin-5-yl)-2,5-difluorobenzenesulfonamide]		< 1000
Cc1cc(C)c(S(=O)(=O)Nc2ccc3c(c2)C(=O)N(C2CCC(=O)NC2=O)C3=O)c(C)c1 (stereo not drawn) [Compound 68, N-(2-(2,6-dioxopiperidin-3-yl)-1,3-dioxoisoindolin-5-yl)-2,4,6-trimethylbenzenesulfonamide]		< 1000
O=C1CCC(N2C(=O)c3ccc(NS(=O)(=O)c4ccc(Cl)c(C(F)(F)F)c4)cc3C2=O)C(=O)N1 (stereo not drawn) [Compound 70, 4-chloro-N-(2-(2,6-dioxopiperidin-3-yl)-1,3-dioxoisoindolin-5-yl)-3-(trifluoromethyl)benzenesulfonamide]	> 10000	
O=C1CCC(N2C(=O)c3ccc(NS(=O)(=O)c4ccc(Cl)c(Cl)c4)cc3C2=O)C(=O)N1 (stereo not drawn) [Compound 71, 3,4-dichloro-N-(2-(2,6-dioxopiperidin-3-yl)-1,3-dioxoisoindolin-5-yl)benzenesulfonamide]	> 10000	< 1000
O=C1CCC(N2C(=O)c3ccc(NS(=O)(=O)c4ccc(F)cc4F)cc3C2=O)C(=O)N1 (stereo not drawn) [Compound 74, N-(2-(2,6-dioxopiperidin-3-yl)-1,3-dioxoisoindolin-5-yl)-2,4-difluorobenzenefylfonamide]		1000 to 10000
Cc1ccc(F)cc1S(=O)(=O)Nc1ccc2c(c1)C(=O)N(C1CCC(=O)NC1=O)C2=O (stereo not drawn) [Compound 75, N-(2-(2,6-dioxopiperidin-3-yl)-1,3-dioxoisoindolin-5-yl)-5-fluoro-2-methylbenzenesulfonamide]	> 10000	< 1000
O=C1CCC(N2C(=O)c3ccc(NS(=O)(=O)c4ccc(F)c(F)c4)cc3C2=O)C(=O)N1 (stereo not drawn) [Compound 76]	> 10000	1000 to 10000
CCOc1ccccc1S(=O)(=O)Nc1ccc2c(c1)C(=O)N(C1CCC(=O)NC1=O)C2=O (stereo not drawn) [Compound 79, N-(2-(2,6-dioxopiperidin-3-yl)-1,3-dioxoisoindolin-5-yl)-2-ethoxybenzenesulfonamide]		1000 to 10000
Cc1cc(S(=O)(=O)Nc2ccc3c(c2)C(=O)N(C2CCC(=O)NC2=O)C3=O)c(C)o1 (stereo not drawn) [Compound 84, N-(2-(2,6-dioxopiperidin-3-yl)-1,3-dioxoisoindolin-5-yl)-2,5-dimethylfuran-3-sulfonamide]		< 1000
O=C1CCC(N2C(=O)c3ccc(NS(=O)(=O)c4cccc(Cl)c4Cl)cc3C2=O)C(=O)N1 (stereo not drawn) [Compound 88, 2,3-dichloro-N-(2-(2,6-dioxopiperidin-3-yl)-1,3-dioxoisoindolin-5-yl)benzenesulfonamide]		< 1000
O=C1CCC(N2C(=O)c3ccc(NS(=O)(=O)c4ccco4)cc3C2=O)C(=O)N1 (stereo not drawn) [Compound 91, N-(2-(2,6-dioxopiperidin-3-yl)-1,3-dioxoisoindolin-5-yl)furan-2-sulfonamide]		< 1000
